Results published in ChEMBL document CHEMBL5113521, “Discovery of a Novel Oral Proteasome Inhibitor to Block NLRP3 Inflammasome Activation with Anti-inflammation Activity” (J Med Chem, 2022).
The source made the active and inactive calls. The calls are words filed in the database; no cut-off is given here.

Key:
J774.A1 [1] = test: Inhibition of NF-kappaB in LPS treated mouse J774.A1 cells assessed as reduction in phosphorylated p65 level at 60 nM incubated for 1 hr followed by LPS stimulation measured after 5 hrs by Western blot analysis; format: cell-based; settings: time 6.0 hrs
[2] = molecular target: NACHT, LRR and PYD domains-containing protein 3 (Mus musculus) (UniProt Q8R4B8); test: Inhibition of NLRP3 inflammasome activation in LPS-primed mouse BMDM cells assessed as reduction in IL-1 beta release preincubated for 1 hr followed by nigericin stimulation and measured after 1 hr by ELISA; format: cell-based; settings: dose 7.5-60 nM, time 2.0 hrs, DDE = dose-dependent effect
[3] = Cytotoxicity against HEK293 cells incubated for 24 hrs; format: toxicity, cell-based; settings: human
Mus musculus [4] = test: Protection against DSS-induced acute colitis in C57BL/6 mouse model assessed as improvement in loss of crypt architecture at 0.125 to 0.5 mg/kg, po administered for 10 days by Hematoxylin and eosin staining based analysis; format: functional, organism-based; settings: dose 0.125-0.5 mg/kg, time 10.0 day
Mus musculus [5] = test: Protection against DSS-induced C57BL/6 mouse ulcerative colitis model assessed as reduction in NLRP3 level in colon at 0.125 to 0.5 mg/kg, po by Western blot analysis; format: functional, organism-based; settings: dose 0.125-0.5 mg/kg
[6] = molecular target: NACHT, LRR and PYD domains-containing protein 3 (Mus musculus) (UniProt Q8R4B8); test: Inhibition of NLRP3 inflammasome activation in LPS-stimulated mouse J774.A1 cells assessed as increase in c-Cbl expression at 7.5 to 60 nM preincubated for 1 hr followed by nigericin stimulation measured after 1 hr by immunoblot analysis; format: cell-based; settings: dose 7.5-60 nM, time 2.0 hrs
J774.A1 [7] = test: Inhibition of NF-kappaB in LPS treated mouse J774.A1 cells assessed as reduction in pro-IL-1beta expression at 7.5 to 60 nM incubated for 1 hr followed by LPS stimulation measured after 5 hrs by Western blot analysis; format: cell-based; settings: dose 7.5-60 nM, time 6.0 hrs
[8] = MRT (0 to infinity) in Sprague-Dawley rat at 0.5 mg/kg, iv measured upto 24 hrs by liquid chromatography tandem mass spectrometry; format: ADME, organism-based; settings: in vivo
[9] = molecular target: NACHT, LRR and PYD domains-containing protein 3 (Mus musculus) (UniProt Q8R4B8); test: Inhibition of NLRP3 inflammasome activation in LPS-primed mouse J774.A1 cells assessed as reduction in IL-1beta secretion preincubated for 1 hr followed by nigericin stimulation and measured after 1 hr by ELISA; format: cell-based; settings: time 2.0 hrs, DDE = dose-dependent effect
[10] = molecular target: NACHT, LRR and PYD domains-containing protein 3 (Mus musculus) (UniProt Q8R4B8); test: Inhibition of NLRP3 inflammasome activation in LPS-primed mouse J774.A1 cells assessed as inhibition of release of IL-1 beta preincubated for 1 hr followed by nigericin stimulation and measured after 1 hr by ELISA; format: cell-based; settings: dose 7.5-60 nM, time 2.0 hrs, DDE = dose-dependent effect
[11] = Clearance in Sprague-Dawley rat at 0.5 mg/kg, iv measured upto 24 hrs by liquid chromatography tandem mass spectrometry; format: ADME, organism-based; settings: in vivo
[12] = molecular target: T1, Interferon-inducible protein AIM2 (Mus musculus) (UniProt Q91VJ1); test: Inhibition of AIM2 inflammasome activation in LPS-primed mouse BMDM cells assessed as reduction in IL-1beta secretion at 7.5 to 60 nM preincubated for 1 hr followed by poly (dA/dT) stimulation by ELISA; format: cell-based; settings: dose 7.5-60 nM
T1 sequence (whole entry): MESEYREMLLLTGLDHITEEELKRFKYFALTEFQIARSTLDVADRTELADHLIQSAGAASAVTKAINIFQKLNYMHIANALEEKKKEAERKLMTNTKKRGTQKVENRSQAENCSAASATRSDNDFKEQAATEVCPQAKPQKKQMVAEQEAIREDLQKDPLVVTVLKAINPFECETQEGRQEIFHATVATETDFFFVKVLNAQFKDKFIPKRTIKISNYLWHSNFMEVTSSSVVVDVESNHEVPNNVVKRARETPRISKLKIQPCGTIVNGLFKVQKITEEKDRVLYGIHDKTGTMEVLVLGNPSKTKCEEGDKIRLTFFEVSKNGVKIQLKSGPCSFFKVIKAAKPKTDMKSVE

J774.A1 [13] = test: Inhibition of NF-kappaB in LPS treated mouse J774.A1 cells assessed as reduction in p65 level at 60 nM incubated for 1 hr followed by LPS stimulation measured after 5 hrs by Western blot analysis; format: cell-based; settings: time 6.0 hrs
[14] = molecular target: T1, Interferon-inducible protein AIM2 (Mus musculus); test: Inhibition of AIM2 inflammasome activation in LPS-primed mouse BMDM cells assessed as reduction in IL-1beta secretion at 7.5 to 60 nM preincubated for 1 hr followed by FLA-ST Ultrapure stimulation by ELISA; format: cell-based; settings: dose 7.5-60 nM
[15] = Cmax in Sprague-Dawley rat at 0.5 mg/kg, iv measured upto 24 hrs by liquid chromatography tandem mass spectrometry; format: ADME, organism-based; parameters: time < 24 hrs, dose 0.5 mg/kg, route iv; settings: in vivo
[16] = molecular target: NACHT, LRR and PYD domains-containing protein 3 (Mus musculus) (UniProt Q8R4B8); test: Inhibition of NLRP3 inflammasome activation in LPS-stimulated mouse J774.A1 cells assessed as increase in Cbl-b expression at 30 to 100 nM preincubated for 1 hr followed by nigericin stimulation measured after 1 hr by immunoblot analysis; format: cell-based; settings: dose 30-100 nM, time 2.0 hrs
HEK293 = test: Cytotoxicity against HEK293 cells at less than 20 uM incubated for 24 hrs; format: toxicity, cell-based; settings: human, hek293, 24 h
[17] = Tmax in Sprague-Dawley rat at 0.5 mg/kg, iv measured upto 24 hrs by liquid chromatography tandem mass spectrometry; format: ADME, organism-based; settings: in vivo
Mus musculus [18] = test: Anti-colitis activity against DSS-induced ulcerative colitis C57BL/6J mouse model assessed as suppression of DSS induced weight loss at 0.125 to 0.5 mg/kg, po administered every 72 hrs for 10 days; format: functional, organism-based; settings: dose 0.125-0.5 mg/kg, time 10.0 day

Sequence of NACHT, LRR and PYD domains-containing protein 3 (Mus musculus) (Q8R4B8 whole entry, the tested form may be a part): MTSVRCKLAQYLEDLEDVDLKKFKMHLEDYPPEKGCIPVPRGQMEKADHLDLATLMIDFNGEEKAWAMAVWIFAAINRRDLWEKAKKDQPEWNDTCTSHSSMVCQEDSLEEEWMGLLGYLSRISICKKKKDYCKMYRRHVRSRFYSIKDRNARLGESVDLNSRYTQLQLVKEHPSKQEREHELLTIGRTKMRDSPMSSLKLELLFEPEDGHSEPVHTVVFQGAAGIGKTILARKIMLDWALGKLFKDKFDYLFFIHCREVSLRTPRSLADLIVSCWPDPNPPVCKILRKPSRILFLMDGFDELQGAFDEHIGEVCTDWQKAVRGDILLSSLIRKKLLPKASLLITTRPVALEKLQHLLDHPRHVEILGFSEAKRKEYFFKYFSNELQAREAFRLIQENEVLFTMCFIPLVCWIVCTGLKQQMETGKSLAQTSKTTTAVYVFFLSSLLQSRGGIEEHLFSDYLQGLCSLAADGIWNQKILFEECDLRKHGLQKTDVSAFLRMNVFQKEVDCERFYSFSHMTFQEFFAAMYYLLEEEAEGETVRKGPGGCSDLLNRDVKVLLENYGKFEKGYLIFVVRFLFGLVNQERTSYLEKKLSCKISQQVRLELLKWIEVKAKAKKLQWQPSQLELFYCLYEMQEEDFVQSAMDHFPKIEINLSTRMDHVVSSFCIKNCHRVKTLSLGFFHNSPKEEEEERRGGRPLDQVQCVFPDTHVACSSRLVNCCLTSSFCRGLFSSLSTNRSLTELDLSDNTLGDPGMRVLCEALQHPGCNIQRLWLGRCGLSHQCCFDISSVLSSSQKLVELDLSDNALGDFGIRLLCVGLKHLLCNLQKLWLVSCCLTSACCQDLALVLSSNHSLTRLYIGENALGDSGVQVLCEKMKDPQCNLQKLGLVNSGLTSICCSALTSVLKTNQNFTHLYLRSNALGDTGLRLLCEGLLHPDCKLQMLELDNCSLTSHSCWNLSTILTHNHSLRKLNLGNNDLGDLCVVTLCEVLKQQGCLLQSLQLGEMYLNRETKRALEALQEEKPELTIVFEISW

CC(C)C[C@H](NC(=O)[C@H](Cc1ccccc1)NC(=O)c1c(F)cccc1F)B(O)O
inhibition (J774.A1 [1]): Active | inhibition [2]: Dde | IC50 at 24 h [3]: < 79.4 nM | Activity (Mus musculus [4]): Active | Activity (Mus musculus [5]): Active | Activity [6]: Active | inhibition (J774.A1 [7]): Active | MRT inf [8]: 6.14 h | inhibition [9]: Dde | inhibition [10]: Dde | clearance [11]: 18.8 mL/min/kg | inhibition [12]: Active | inhibition (J774.A1 [13]): Active | inhibition [14]: Active | Cmax [15]: 377 ng/mL | Activity [16]: Active | Activity (HEK293): Non-Toxic | Tmax [17]: 4.8 min | Activity (Mus musculus [18]): Active
